Data set [1] concerns the target T1, Serine/threonine-protein kinase 24 (Homo sapiens, UniProt Q9Y6E0). The data set is described as follows: Binding affinity to C-terminal full length human MST3 expressed in intact HEK293T cells incubated for 2 hrs by NanoBRET assay. Format: cell-based.
Target sequence in this assay (Q9Y6E0 whole entry): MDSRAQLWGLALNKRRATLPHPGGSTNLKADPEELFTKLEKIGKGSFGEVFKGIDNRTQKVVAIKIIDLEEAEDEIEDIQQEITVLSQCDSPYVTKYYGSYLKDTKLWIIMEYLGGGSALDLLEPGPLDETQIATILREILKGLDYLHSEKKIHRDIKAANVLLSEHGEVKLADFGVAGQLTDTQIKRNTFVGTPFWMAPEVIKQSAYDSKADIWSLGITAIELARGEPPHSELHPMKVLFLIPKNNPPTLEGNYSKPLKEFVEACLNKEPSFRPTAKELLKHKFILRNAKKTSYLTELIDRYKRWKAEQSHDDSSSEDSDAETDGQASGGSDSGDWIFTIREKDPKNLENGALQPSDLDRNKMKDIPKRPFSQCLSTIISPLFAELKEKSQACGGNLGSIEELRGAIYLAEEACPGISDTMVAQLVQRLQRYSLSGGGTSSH
Data set [2] in a line: Toxicity in human HCT-116 cells expressing FUCCI assessed as decrease in normalized cell count at 1 to 10 uM measured after 72 hrs by Hoechst33342 staining based analysis relative to control. More on the design: scale not given: the % may be the effect or the level left. The following applies: hct-116, 72 h, dose 1-10 µM.
Data set [3] concerns the target T1, Serine/threonine-protein kinase 24. The following applies: dose 10.0 µM.
Target sequence in this assay (Q9Y6E0 whole entry, looked up): as the sequence (Q9Y6E0 whole entry) above
Description: Binding affinity to recombinant MST3 (unknown origin) kinase domain assessed as thermal stabilization by measuring change in melting temperature at 10 uM by DSF analysis
Data set [4] has as its system HCT-116. The data set can be described thus: Cell cycle arrest in human HCT-116 cells expressing […] assessed as S phase cells at 10 uM incubated for 72 hrs by Hoechst33342 staining based analysis relative to control. Format: functional.
Data set [5] deals with HCT-116. The data set is described as follows: Cell cycle arrest in human HCT-116 cells expressing […] assessed as S phase cells at 1 uM incubated for 72 hrs by Hoechst33342 staining based analysis relative to control. In kind it is functional.
For data set [6], the system named is HCT-116. The data set can be described thus: Cell cycle arrest in human HCT-116 cells expressing […] assessed as G2/M phase cells at 10 uM incubated for 72 hrs by Hoechst33342 staining based analysis (reference value: 38%). In kind it is functional.
Data set [7] has as its target T2, Serine/threonine-protein kinase 26 (Homo sapiens, UniProt Q9P289). The data set is described as follows: Binding affinity to C-terminal full length human MST4 expressed in intact HEK293T cells incubated for 2 hrs by NanoBRET assay. Format: cell-based.
Target sequence in this assay (Q9P289 whole entry): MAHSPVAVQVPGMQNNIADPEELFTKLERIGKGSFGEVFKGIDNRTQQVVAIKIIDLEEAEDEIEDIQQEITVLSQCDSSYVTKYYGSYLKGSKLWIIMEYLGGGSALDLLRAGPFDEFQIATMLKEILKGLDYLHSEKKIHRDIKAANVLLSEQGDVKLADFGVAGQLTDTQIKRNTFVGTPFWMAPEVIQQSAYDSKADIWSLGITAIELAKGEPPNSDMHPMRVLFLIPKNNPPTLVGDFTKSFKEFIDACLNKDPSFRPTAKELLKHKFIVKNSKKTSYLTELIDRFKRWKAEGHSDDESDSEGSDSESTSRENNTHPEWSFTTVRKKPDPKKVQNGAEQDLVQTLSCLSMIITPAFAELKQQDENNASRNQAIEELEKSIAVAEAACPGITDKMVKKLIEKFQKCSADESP
Data set [8] deals with HCT-116. The data set can be described thus: Cell cycle arrest in human HCT-116 cells expressing […] assessed as G1 phase cells at 1 uM incubated for 72 hrs by Hoechst33342 staining based analysis (reference value: 52%). In kind it is functional.
Data set [9] deals with T2, Serine/threonine-protein kinase 26. The following applies: dose 10.0 µM.
Target sequence in this assay (Q9P289 2-416 limits assumed): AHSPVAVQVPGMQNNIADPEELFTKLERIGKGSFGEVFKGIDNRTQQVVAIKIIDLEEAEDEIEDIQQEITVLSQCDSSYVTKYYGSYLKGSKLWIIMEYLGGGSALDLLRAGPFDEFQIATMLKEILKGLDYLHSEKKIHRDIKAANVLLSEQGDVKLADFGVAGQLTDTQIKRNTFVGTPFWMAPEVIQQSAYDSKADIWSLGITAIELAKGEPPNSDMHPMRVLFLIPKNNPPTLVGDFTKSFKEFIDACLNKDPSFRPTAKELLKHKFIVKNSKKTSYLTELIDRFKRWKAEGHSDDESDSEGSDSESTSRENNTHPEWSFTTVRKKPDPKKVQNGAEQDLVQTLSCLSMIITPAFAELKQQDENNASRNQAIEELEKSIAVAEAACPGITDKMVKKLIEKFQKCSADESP
Description: Binding affinity to recombinant MST4 (unknown origin) kinase domain assessed as thermal stabilization by measuring change in melting temperature at 10 uM by DSF analysis
The target of data set [10] is T3, Serine/threonine-protein kinase 4 (Homo sapiens) (UniProt Q13043).
T3 sequence (whole entry): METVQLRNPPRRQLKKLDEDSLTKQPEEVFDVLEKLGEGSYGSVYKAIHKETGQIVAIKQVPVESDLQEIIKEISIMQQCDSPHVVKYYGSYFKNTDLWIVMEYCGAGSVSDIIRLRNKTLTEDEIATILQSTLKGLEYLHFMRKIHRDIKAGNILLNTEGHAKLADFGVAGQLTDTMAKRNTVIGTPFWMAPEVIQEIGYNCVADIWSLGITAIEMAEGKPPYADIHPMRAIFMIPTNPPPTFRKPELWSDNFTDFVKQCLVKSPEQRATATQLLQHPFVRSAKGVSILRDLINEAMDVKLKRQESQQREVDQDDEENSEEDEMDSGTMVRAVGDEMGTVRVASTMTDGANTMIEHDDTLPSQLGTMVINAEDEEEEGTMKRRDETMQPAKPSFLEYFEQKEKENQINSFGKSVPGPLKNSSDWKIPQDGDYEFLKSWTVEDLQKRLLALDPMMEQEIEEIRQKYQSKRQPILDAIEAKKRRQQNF
The data set is described as follows: Binding affinity to MST1 (unknown origin) assessed as residual activity at 10 uM relative to control.

Data set [11] deals with HCT-116. The data set is described as follows: Cell cycle arrest in human HCT-116 cells expressing […] assessed as G1 phase cells at 10 uM incubated for 72 hrs by Hoechst33342 staining based analysis (reference value: 52%). Format: functional.
The target of data set [12] is T4, Serine/threonine-protein kinase 3 (Homo sapiens) (UniProt Q13188).
T4 sequence (whole entry): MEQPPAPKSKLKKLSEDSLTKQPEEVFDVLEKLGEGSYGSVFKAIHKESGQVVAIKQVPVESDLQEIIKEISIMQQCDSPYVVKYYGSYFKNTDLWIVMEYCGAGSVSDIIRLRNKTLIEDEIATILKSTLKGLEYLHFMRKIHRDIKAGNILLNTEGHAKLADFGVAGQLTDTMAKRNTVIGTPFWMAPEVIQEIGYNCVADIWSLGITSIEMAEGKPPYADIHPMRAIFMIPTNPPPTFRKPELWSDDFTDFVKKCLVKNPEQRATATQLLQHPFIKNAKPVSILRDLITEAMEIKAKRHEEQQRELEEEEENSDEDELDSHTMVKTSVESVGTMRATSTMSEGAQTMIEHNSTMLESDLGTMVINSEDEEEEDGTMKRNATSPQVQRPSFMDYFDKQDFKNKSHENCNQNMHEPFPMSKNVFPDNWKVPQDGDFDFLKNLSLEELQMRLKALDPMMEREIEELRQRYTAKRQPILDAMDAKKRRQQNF
The following applies: dose 10.0 µM.
Description: Binding affinity to recombinant MST2 (unknown origin) kinase domain assessed as thermal stabilization by measuring change in melting temperature at 10 uM by DSF analysis

Data set [13] concerns the target T4, Serine/threonine-protein kinase 3 (Homo sapiens). The data set is described as follows: Binding affinity to MST2 (unknown origin) assessed as residual activity at 10 uM relative to control.
The target of data set [14] is T3, Serine/threonine-protein kinase 4 (Homo sapiens). The following applies: dose 10.0 µM.
Description: Binding affinity to recombinant MST1 (unknown origin) kinase domain assessed as thermal stabilization by measuring change in melting temperature at 10 uM by DSF analysis
Data set [15] concerns the target T2, Serine/threonine-protein kinase 26. The data set can be described thus: Binding affinity to MST4 (unknown origin) assessed as residual activity at 10 uM relative to control.
Target sequence in this assay (Q9P289 2-416 limits assumed): as the sequence (Q9P289 2-416 limits assumed) above
Data set [16] has as its system HCT-116. The data set can be described thus: Cell cycle arrest in human HCT-116 cells expressing […] assessed as G2/M phase cells at 1 uM incubated for 72 hrs by Hoechst33342 staining based analysis (reference value: 38%). Format: functional.
The target of data set [17] is T5, Serine/threonine-protein kinase 4 (Homo sapiens, UniProt Q13043).
T5 sequence (Q13043 whole entry): T3 sequence (whole entry)
The data set is described as follows: Binding affinity to N-terminal full length human MST1 expressed in intact HEK293T cells incubated for 2 hrs by NanoBRET assay. In kind it is cell-based.

The target in data set [18] is T1, Serine/threonine-protein kinase 24. The data set can be described thus: Binding affinity to C-terminal full length human MST3 expressed in permeabilized HEK293T cells incubated for 2 hrs by NanoBRET assay. In kind it is cell-based.
Target sequence in this assay (Q9Y6E0 whole entry): as the sequence (Q9Y6E0 whole entry) above
Data set [19] has as its target T2, Serine/threonine-protein kinase 26. The data set can be described thus: Binding affinity to C-terminal full length human MST4 expressed in permeabilized HEK293T cells incubated for 2 hrs by NanoBRET assay. In kind it is cell-based.
Target sequence in this assay (Q9P289 whole entry): as the sequence (Q9P289 whole entry) above
Data set [20] deals with T6, Serine/threonine-protein kinase 3 (Homo sapiens, UniProt Q13188).
T6 sequence (Q13188 whole entry): T4 sequence (whole entry)
The data set can be described thus: Binding affinity to N-terminal full length human MST2 expressed in intact HEK293T cells incubated for 2 hrs by NanoBRET assay. Format: cell-based.

In data set [21] the target is Glycogen synthase kinase-3 beta (Homo sapiens) (UniProt P49841). The data set is described as follows: Binding affinity to GSK3B (unknown origin) assessed as thermal stabilization by measuring change in melting temperature by DSF analysis.

Calls of active or inactive are those of the source. The calls are words filed in the database; no cut-off is given here.

The results in this text go back to ChEMBL document CHEMBL5532666 (J Med Chem, 2024).

Glycogen synthase kinase-3 beta (Homo sapiens), sequence (P49841 whole entry, looked up): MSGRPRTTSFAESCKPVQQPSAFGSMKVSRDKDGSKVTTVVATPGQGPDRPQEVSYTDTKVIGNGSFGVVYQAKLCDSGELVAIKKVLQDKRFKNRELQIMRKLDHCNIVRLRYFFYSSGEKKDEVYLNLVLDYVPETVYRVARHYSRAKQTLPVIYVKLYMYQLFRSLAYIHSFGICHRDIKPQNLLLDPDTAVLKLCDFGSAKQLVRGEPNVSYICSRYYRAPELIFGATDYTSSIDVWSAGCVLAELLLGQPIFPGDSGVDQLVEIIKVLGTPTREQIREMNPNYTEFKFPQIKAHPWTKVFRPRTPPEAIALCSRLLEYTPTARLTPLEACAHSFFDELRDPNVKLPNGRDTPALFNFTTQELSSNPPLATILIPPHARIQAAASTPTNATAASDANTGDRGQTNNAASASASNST

As to `N#CCc1ccc(Nc2nccc(Nc3cc(C4CC4)[nH]n3)n2)cc1`, the results for the concentration for a half-maximal effect (EC50) in data set [1] and in data set [7] were 6.54 µM and 4.84 µM, respectively. In addition, the Activity was under 50% in [2]; 16% in the data set with HCT-116 [4]; 18% in the data set with HCT-116 [5]; 42% in the data set with HCT-116 [6]; 52% in the data set on HCT-116 [8]; 0.15% in data set [10]. Moreover, the Activity was 42% in the data set on HCT-116 [11], 0.15% in [13], 0.15% in [15] and 30% with HCT-116 [16]. Also, the ΔTm in data set [3] turned out to be 9.3 °C; in data set [9], 7.1 °C; in [12], 11.6 °C; in data set [14], 9.6 °C.
As to `O=C1NCCCCCNc2ncc(Cl)c(n2)Nc2cc1[nH]n2`, the EC50 in [1] is 40.3 µM; in [17] it was 9.74 µM; in data set [18], 2.67 µM; in [19] it was 7.76 µM; in data set [20], 10.1 µM; in data set [7], over 50 µM. Also, the thermal shift (ΔTm) in data set [3] stood at 2.7 °C; in [9], 1.6 °C; in data set [12], 2.8 °C; in data set [14], 2.5 °C.
As to `O=C1NCCc2ccc(cc2)Nc2nc(c3ccccc3n2)Nc2cc1[nH]n2`, the EC50 is 4.45 µM in data set [1]; 28.6 µM in data set [17]; 1.46 µM in [18]; 2.75 µM in data set [19]; 28.3 µM in [20]; 17.5 µM in data set [7]. Moreover, the ΔTm amounted to 3.3 °C in [3], 4.7 °C in data set [9], 2.3 °C in data set [12] and 1 °C in [14].
In the case of `O=C1NCCOCCNc2ncc(Cl)c(n2)Nc2cc1[nH]n2`, the EC50 in data set [1] was over 50 µM; in data set [17], over 50 µM; in [18] it was 17.7 µM; in [19], 41.8 µM; in data set [20] it was over 50 µM; in [7], over 50 µM. The ΔTm in data set [3] amounted to 0.6 °C; in data set [9], 2.8 °C; in data set [12] it was 0.6 °C; in [14], 1.1 °C.
On to `O=C1NCCCCCCNc2ncc(Cl)c(n2)Nc2cc1[nH]n2`, for which the EC50 is over 50 µM in data set [1]; over 50 µM in [17]; 21.9 µM in data set [18]; 45 µM in [19]; over 50 µM in data set [20]; over 50 µM in data set [7]. Moreover, the ΔTm in data set [3] was determined as 0.3 °C; in data set [9], 2.1 °C; in data set [12], 1 °C; in data set [14] it was 1.5 °C.
`O=C1NCCc2ccc(cc2)Nc2ncc(Cl)c(n2)Nc2cc1[nH]n2`: the EC50 in [1] was 4.97 µM; in data set [17], 11.8 µM; in data set [18], 5.17 µM; in data set [19], 7.61 µM; in data set [20], 9.96 µM; in data set [7], 6.71 µM. In addition, the ΔTm in [3] came to 1.2 °C; in [9], 0.7 °C; in data set [12], 0.7 °C; in [14], 0.3 °C.
For the molecule `Cc1cnc2nc1Nc1cc([nH]n1)C(=O)NCCc1ccc(cc1)N2`, the EC50 in [1] is 37 µM; in [17], over 50 µM; in data set [18], 38.3 µM; in [19], over 50 µM; in [20], over 50 µM; in data set [7] it was 38.8 µM. The ΔTm stood at 0.5 °C in data set [3], 2.3 °C in [9], 0.2 °C in [12] and 1 °C in data set [14].
For `CNC(=O)c1nn(C)c2c1C(C)(C)Cc1cnc(Nc3ccc(N4CCN(C)CC4)cc3)nc1-2` [MILCICLIB], the Activity with HCT-116 [4] came out at 16%; in the data set with HCT-116 [6] it was 21%; with HCT-116 [8], 72%; in the data set with HCT-116 [11] it was 63%; with HCT-116 [16] it was 19%.
For the molecule `O=C1NCCc2cccc(c2)Nc2nc(c3ccccc3n2)Nc2cc1[nH]n2`, the EC50 in data set [1] was 6.51 µM; in data set [17], 13.7 µM; in data set [18], 0.92 µM; in [19], 2.44 µM; in data set [20], 13 µM; in data set [7], 11.8 µM. In addition, the ΔTm in [3] was 3.9 °C; in [9] it was 4 °C; in data set [12], 1.3 °C; in [14], 1.7 °C.
In the case of `O=C1NCCOCCNc2nc(c3ccccc3n2)Nc2cc1[nH]n2`, the EC50 is 4.49 µM in data set [1]; over 50 µM in data set [17]; 1.23 µM in [18]; 4.3 µM in data set [19]; over 50 µM in [20]; 37.6 µM in [7]. For the same molecule, the ΔTm in [3] amounted to 2.5 °C; in data set [9], 2.5 °C; in data set [12], 0.5 °C; in data set [14], 0.6 °C. Further, the result in data set [21] was inactive.
For `O=C1NCCCCCCNc2nc(c3ccccc3n2)Nc2cc1[nH]n2`, the EC50 in data set [1] is 1.75 µM; in data set [17], over 50 µM; in data set [18] it was 0.45 µM; in data set [19], 1.26 µM; in data set [20] it was 40.1 µM. Also, the ΔTm is 3.7 °C in data set [3]; 4 °C in data set [9]; over 5 °C in data set [21]; 0.4 °C in [12]; 0.7 °C in data set [14].
As to `O=C1NCCc2cccc(c2)Nc2ncc(Cl)c(n2)Nc2cc1[nH]n2`, the EC50 worked out at 14.1 µM in [1]; 7.84 µM in [17]; 8.53 µM in [18]; 10.3 µM in [19]; 7.54 µM in data set [20]; 10.2 µM in data set [7]. Also, the ΔTm worked out at 2.9 °C in data set [3], 0.6 °C in data set [9], 1.7 °C in data set [12] and 0.8 °C in [14].
